Patent publication US9131690B2, “Macrocyclic picolinamides as fungicides” (Dow AgroSciences LLC, priority 2012, dated 2015)
Read-outs that look alike come from different tables or passages of the source.

Assays:
[1] = test system: Mycosphaerella graminicola; Anamorph: Septoria tritici; test: Fungicidal activity: Leaf Blotch of Wheat (SEPTTR), wheat plants variety Yuma; assay type: in vivo; conditions: Zymoseptoria tritici
Method in brief: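 Greenhouse wheat seedlings at first-leaf stage, 7-10 per pot, inoculated with aqueous Septoria tritici spore suspension before or after fungicide treatment. Kept at 100% relative humidity (1 day dark dew chamber, then 2-3 days lighted), then greenhouse at 20° C. for disease development.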

[2] = test system: Puccinia triticina. Synonym: Puccinia recondite f. sp. tritici; test: Fungicidal activity: Wheat Brown Rust (PUCCRT), wheat plants variety Yuma; assay type: in vivo; design: key to PUCCRT 3DC Disease Control: A: 50-100; B: More than 0-Less than 50; C: Not Tested; D: No activity noticed in this bioassay; conditions: for pest or weed control at 100 ppm: Puccinia triticina
Method in brief: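 Yuma wheat seedlings at first-leaf stage were inoculated with P. triticina spore suspension before or after fungicide treatment. Plants were held overnight at 100% relative humidity, then kept in a 24 C greenhouse for disease development.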

[3] = 24 h, 1 Day Protectant, read-out: SEPTTR 1DP Disease Control
[4] = 72 h, 3 Day Curative, read-out: SEPTTR 3DC Disease Control
[5] = 24 h, 1 Day Protectant, read-out: PUCCRT 1DP Disease Control
[6] = 72 h, 3 Day Curative, read-out: PUCCRT 3DC Disease Control

melting point [°C] | SMILES | pest or weed control at 100 ppm [1, 3] [%] | pest or weed control at 100 ppm [1, 4] [%] | pest or weed control at 100 ppm [2, 5] [%] | pest or weed control at 100 ppm [2, 6] [%] | PUCCRT 3DC Disease Control ([2]; 100 ppm, 3 Day Curative)
169 to 170 | COc1ccnc(C(=O)N[C@H]2COC(=O)[C@H](CC(=O)OC(C)C)[C@@H](OC(=O)C(C)C)[C@H](C)OC2=O)c1O [Compound 49] | 50 to 100 | 50 to 100 | 50 to 100 | 50 to 100 | 
134 to 136 | CCOCC[C@H]1C(=O)OC[C@H](NC(=O)c2nccc(OC)c2O)C(=O)O[C@@H](C)[C@@H]1OC(=O)C(C)C [Compound 45] | 0 to 50 | 0 to 50 | 50 to 100 | 50 to 100 | 
158 to 161 | CC[C@H]1C(=O)OC[C@H](NC(=O)c2nccc(OC)c2OC(C)=O)C(=O)O[C@@H](C)[C@@H]1OC(=O)C(C)C [Compound 69] | 50 to 100 | 50 to 100 | 50 to 100 | 50 to 100 | 
157 to 159 | COc1ccnc(C(=O)N[C@H]2COC(=O)[C@H](CCOC(=O)C3CC3)[C@@H](OC(=O)C(C)C)[C@H](C)OC2=O)c1O [Compound 38] | 50 to 100 | 0 to 50 | 50 to 100 |  | D
